In PMC9050923, “6,N^2-Diaryl-1,3,5-triazine-2,4-diamines: synthesis, antiproliferative activity and 3D-QSAR modeling” (RSC Advances, 2020):

Assays:
Assay type in all cases: cell-based
SKBR-3 = experiment: MTT assay, SKBR-3 breast cancer cells; settings: Homo sapiens, SK-BR-3; 10 μM, 72 h after the treatment, MTT, mean of three independent experiments; read-out: Percentage of cell viability SKBR-3
Procedure: (§1) The prepared compounds 1–126 were tested on three breast cancer cell lines namely, MDA-MB231, SKBR-3 and MCF-7 using MTT assay. SKBR-3 and MCF-7 cell lines are estrogen and progesterone hormone positive cell lines often used as a model for the hormone therapy.[18] MDA-MB231 is triple negative breast cancer cell line, which is negative to estrogen and progesterone receptors and human epidermal growth factor receptor 2, a perfect model for chemotherapy.[18] Initially, all the prepared compounds 1–126 were tested on these three cancer cell lines at the screening concentration (10 μM) and percentage of cell viability was calculated 72 h after the treatment (Table 1).
(§2) The growth inhibitory effect of the compounds was determined on breast tumor cell line (MDA-MB231, SKBR-3 and MCF-7) at different concentrations with methotrexate and nilotinib as positive controls (Table 2).
(§3) The cytotoxic activity of 6,N^2-diaryl-1,3,5-triazine-2,4-diamines (1–126) was evaluated against three breast carcinoma cell lines (MDA-MB231, SKBR-3, and MCF-7) and normal breast cell line (MCF-10A) by MTT assay.[22] All cells were obtained from the American Type Culture Collection and were grown in 10% fetal bovine serum and 1% pen-strep antibiotic supplemented media (DMEM for MDA-MB231 and SKBR-3, RPMI for MCF-7, and MEGM for MCF-10A). For MTT assay, 20 000 to 75 000 cells per mL (based on the doubling time for each cell line) were seeded in 96 well plates and incubated for 24 h at 37 °C in 5% CO2 incubator. Then, compounds at different concentrations were added followed by the incubation at 37 °C for 72 h. After that, MTT solution (0.5 mg mL^−1) was added and the plates were incubated for another 4 h. The supernatant was then discarded and 100 μL of DMSO was added to each well. The plates were then read by Tecan NanoQuant (model: infinite m200 pro) plate reader and absorbance was measured at 570 nm. GI50 values were calculated using sigmoidal concentration–response curves (see ESI ^†) generated using the GraphPad Prism 7 program. Three independent experiments were carried out and the data were represented as mean of the three experiments.

MDA-MB231 = experiment: MTT assay, MDA-MB231 breast cancer cells; settings: Homo sapiens, MDA-MB-231; 10 μM, 72 h after the treatment, MTT, mean of three independent experiments; read-out: Percentage of cell viability MDA-MB231
Procedure: as §1, §2, §3

MCF-7 = experiment: MTT assay, MCF-7 breast cancer cells; settings: Homo sapiens, MCF7, 10 μM, 72 h after the treatment, mean of three independent experiments, read-out: Percentage of cell viability MCF-7
Procedure: as §1, §2, §3

| Compound | viability at 10 µM (SKBR-3) | viability at 10 µM (MDA-MB231) | viability at 10 µM (MCF-7) |
| --- | --- | --- | --- |
| COc1ccc(Nc2nc(N)nc(-c3cccc(C)c3)n2)cc1 [Compound 57, N ^2-(4-Methoxyphenyl)-6-(3-methylphenyl)-1,3,5-triazine-2,4-diamine] | 90% | 91% | 75% |
| Cc1cccc(-c2nc(N)nc(Nc3ccc(C(C)C)cc3)n2)c1 [Compound 59, N ^2-(4-Isopropylphenyl)-6-(3-methylphenyl)-1,3,5-triazine-2,4-diamine] | 93% | 87% | 76% |
| Cc1ccc(-c2nc(N)nc(Nc3ccccc3)n2)cc1 [Compound 60] | 100% | 84% | 100% |
| Cc1ccc(-c2nc(N)nc(Nc3ccc(Br)cc3)n2)cc1 [Compound 63] | 100% | 87% | 93% |
| Cc1ccc(Nc2nc(N)nc(-c3ccc(C)cc3)n2)cc1 [Compound 64] | 92% | 59% | 86% |
| COc1ccc(Nc2nc(N)nc(-c3ccc(C)cc3)n2)cc1 [Compound 66] | 89% | 83% | 100% |
| Cc1ccc(-c2nc(N)nc(Nc3ccc(OC(F)(F)F)cc3)n2)cc1 [Compound 67] | 84% | 92% | 93% |
| Cc1ccc(-c2nc(N)nc(Nc3ccc(C(C)C)cc3)n2)cc1 [Compound 68] | 91% | 76% | 100% |
| Cc1ccc(-c2nc(N)nc(Nc3cccnc3)n2)cc1 [Compound 69] | 79% | 74% | 88% |
| COc1ccc(-c2nc(N)nc(Nc3ccc(F)cc3)n2)cc1 [Compound 72] | 100% | 68% | 100% |
| COc1ccc(-c2nc(N)nc(Nc3ccc(Cl)cc3)n2)cc1 [Compound 75] | 100% | 99% | 100% |
| COc1ccc(-c2nc(N)nc(Nc3ccc(Br)cc3)n2)cc1 [Compound 76] | 100% | 96% | 91% |
| COc1ccc(-c2nc(N)nc(Nc3ccc(OC(F)(F)F)cc3)n2)cc1 [Compound 79] | 84% | 74% | 95% |
| COc1ccc(-c2nc(N)nc(Nc3ccc(C(C)C)cc3)n2)cc1 [Compound 80] | 86% | 92% | 100% |
| Nc1nc(Nc2ccccc2)nc(-c2ccc(C(F)(F)F)cc2)n1 [Compound 82] | 97% | 55% | 96% |
| Nc1nc(Nc2ccccc2F)nc(-c2ccc(C(F)(F)F)cc2)n1 [Compound 83] | 71% | 55% | 93% |
| Nc1nc(Nc2ccc(Cl)cc2)nc(-c2ccc(C(F)(F)F)cc2)n1 [Compound 85] | 77% | 90% | 99% |
| Cc1ccc(Nc2nc(N)nc(-c3ccc(C(F)(F)F)cc3)n2)cc1 [Compound 86] | 95% | 54% | 83% |
| COc1ccccc1Nc1nc(N)nc(-c2ccc(C(F)(F)F)cc2)n1 [Compound 87] | 85% | 63% | 100% |
| COc1ccc(Nc2nc(N)nc(-c3ccc(C(F)(F)F)cc3)n2)cc1 [Compound 88] | 86% | 81% | 100% |
| Nc1nc(Nc2ccccc2)nc(-c2ccc(OC(F)(F)F)cc2)n1 [Compound 89] | 90% | 59% | 95% |
| Nc1nc(Nc2ccccc2F)nc(-c2ccc(OC(F)(F)F)cc2)n1 [Compound 90] | 80% | 60% | 90% |
| Nc1nc(Nc2ccccc2Cl)nc(-c2ccc(OC(F)(F)F)cc2)n1 [Compound 92] | 86% | 74% | 96% |

| Compound | viability at 10 µM (SKBR-3) | viability at 10 µM (MDA-MB231) | viability at 10 µM (MCF-7) |
| --- | --- | --- | --- |
| Nc1nc(Nc2ccc(Br)cc2)nc(-c2ccc(OC(F)(F)F)cc2)n1 [Compound 93] | 96% | 83% | 90% |
| Cc1ccc(Nc2nc(N)nc(-c3ccc(OC(F)(F)F)cc3)n2)cc1 [Compound 94] | 87% | 79% | 97% |
| COc1ccc(Nc2nc(N)nc(-c3ccc(OC(F)(F)F)cc3)n2)cc1 [Compound 96] | 88% | 69% | 87% |
| Nc1nc(Nc2ccc(OC(F)(F)F)cc2)nc(-c2ccc(OC(F)(F)F)cc2)n1 [Compound 97] | 80% | 92% | 100% |
| CC(C)c1ccc(Nc2nc(N)nc(-c3ccc(OC(F)(F)F)cc3)n2)cc1 [Compound 98] | 90% | 100% | 95% |
| CC(C)c1ccc(Nc2nc(N)nc(-c3ccc(N(C)C)cc3)n2)cc1 [Compound 104] | 87% | 70% | 100% |
| CC(C)(C)c1ccc(-c2nc(N)nc(Nc3ccccc3)n2)cc1 [Compound 105] | 100% | 74% | 96% |
| CC(C)(C)c1ccc(-c2nc(N)nc(Nc3ccc(F)cc3)n2)cc1 [Compound 106] | 84% | 97% | 88% |
| CC(C)(C)c1ccc(-c2nc(N)nc(Nc3ccc(Cl)cc3)n2)cc1 [Compound 107] | 92% | 100% | 98% |
| CC(C)(C)c1ccc(-c2nc(N)nc(Nc3ccc(Br)cc3)n2)cc1 [Compound 108] | 98% | 59% | 99% |
| COc1ccc(Nc2nc(N)nc(-c3ccc(C(C)(C)C)cc3)n2)cc1 [Compound 109] | 85% | 91% | 93% |
| Nc1nc(Nc2ccc(Br)cc2)nc(-c2ccc(OCc3ccccc3)cc2)n1 [Compound 112] | 93% | 82% | 97% |
| Cc1ccc(Nc2nc(N)nc(-c3ccc(OCc4ccccc4)cc3)n2)cc1 [Compound 113] | 94% | 82% | 100% |
| Nc1nc(Nc2ccc(OC(F)(F)F)cc2)nc(-c2ccc(OCc3ccccc3)cc2)n1 [Compound 114] | 87% | 71% | 100% |
| Nc1nc(Nc2ccccc2)nc(-c2cccs2)n1 [Compound 115] | 87% | 100% | 91% |
| Nc1nc(Nc2ccccc2F)nc(-c2cccs2)n1 [Compound 116, N ^2-(2-Fluorophenyl)-6-(thiophen-2-yl)-1,3,5-triazine-2,4-diamine] | 78% | 98% | 90% |
| Nc1nc(Nc2ccc(F)cc2)nc(-c2cccs2)n1 [Compound 117] | 86% | 100% | 92% |
| Nc1nc(Nc2ccccc2Cl)nc(-c2cccs2)n1 [Compound 118] | 78% | 100% | 91% |
| Nc1nc(Nc2ccc(Cl)cc2)nc(-c2cccs2)n1 [Compound 119] | 89% | 100% | 98% |
| COc1ccc(Nc2nc(N)nc(-c3cccs3)n2)cc1 [Compound 123, N ^2-(4-Methoxyphenyl)-6-(thiophen-2-yl)-1,3,5-triazine-2,4-diamine] | 88% | 93% | 80% |
| Nc1nc(Nc2ccc(OC(F)(F)F)cc2)nc(-c2cccs2)n1 [Compound 124] | 86% | 100% | 85% |
| CC(C)c1ccc(Nc2nc(N)nc(-c3cccs3)n2)cc1 [Compound 125] | 86% | 100% | 89% |
| Nc1nc(Nc2cccnc2)nc(-c2cccs2)n1 [Compound 126] | 91% | 100% | 86% |
